Experimental findings from patent publication US6362369B1, “Phthalic acid diamide derivatives fluorine-containing aniline compounds as starting material, agricultural and horticultural insecticides, and a method for application of the insecticides” (Nihon Nohyaku Co., Ltd., priority 1997, dated 2002) are described below.

Test [1] relates to diamondback moth (Plutella xylostella). As to the kind of experiment: Insecticidal effect on diamondback moth (Test Example 1). Type of test: in vivo. To be noted: for Insecticidal effect, Test Example 1 / Insecticidal effect (Test Example 1), judged from mortality: diamondback moth; for Insecticidal effect (Test Example 1), judged from mortality: judged by the criterion of Test Example 1; for Insecticidal effect on diamondback moth (Test Example 1), judged grade: mortality judged according to the criterion shown in Test Example 1. In outline:
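Read-out was mortality from hatched-insect counts taken 6 days after the egg-bearing cabbage seedling was immersed, graded by set criteria. Seedlings were air-dried and kept at 25° C after treatment. Groups of 10 insects, in triplicate.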

Test [2] has as its system common cutworm (Spodoptera Litura). Nature of the test: Insecticidal effect on common cutworm (Test Example 2). The test is classed as in vivo. To be noted: 500 ppm, 25° C.; for Insecticidal effect, Test Example 2: cabbage leaf immersed; for Insecticidal effect, Test Example 2 / Insecticidal effect on common cutworm (Test Example 2), judged grade: eight days after inoculation; for Insecticidal effect (Test Example 2), judged from mortality / Insecticidal effect on common cutworm (Test Example 2), judged grade: cabbage leaf dip; for Insecticidal effect (Test Example 2), judged from mortality: 8 days after inoculation; for Insecticidal effect on common cutworm (Test Example 2), judged grade: second-instar larvae. Here is the method:
Insecticidal effect on common cutworm (Spodoptera Litura)
After air-drying, it was placed in a plastic Petri dish with a diameter of 9 cm and inoculated with second-instar larvae of common cutworm, after which the dish was closed and then allowed to stand in a room thermostated at 25° C. Eight days after the inoculation, the dead and alive were counted. The mortality was calculated according to the following equation and the insecticidal effect was judged according to the criterion shown in Test Example 1. The test was carried out with triplicate groups of 10 insects. [formula]

The mark [3] stands for this setting: judged by the mortality criterion of Test Example 1.
[4] abbreviates: second-instar larvae of common cutworm.
Where [5] appears, read: mortality judged by criterion of Test Example 1.
The mark [6] stands for this setting: common cutworm second-instar larvae.

Structures are written as SMILES.

With `CC(C)NC(=O)c1c(Cl)cccc1C(=O)Nc1ccc(OC(F)F)c(C(F)(F)F)c1` [compound 164], the “Insecticidal effect, Test Example 1” value in test [1] (setting [3]) is “A (100)”. For the same compound, the “Insecticidal effect, Test Example 2” value in test [2] (setting [4]) was “A (100)”.
Turning to `Cc1cc2c(cc1NC(=O)c1cccc(Cl)c1C(=O)NC(C)C)OC(F)(F)C(F)O2` (racemic) [compound 1597], the “Insecticidal effect (Test Example 1), judged from mortality” value in test [1] was “A (100)”. Also, the “Insecticidal effect (Test Example 2), judged from mortality” value in test [2] (setting [4]) was “A (100)”.
Take `CC(C)(C)NC(=O)c1c(I)cccc1C(=O)Nc1cc2c(cc1F)OC(F)(F)O2` [compound 1596]: the “Insecticidal effect (Test Example 1), judged from mortality” value in test [1] is listed as “A (100)”. Further, in test [2] (setting [4]), the “Insecticidal effect (Test Example 2), judged from mortality” value is given as “A (100)”.
Consider `Cc1ccc(Cl)cc1NC(=O)c1cccc([N+](=O)[O-])c1C(=O)NCC(C)C` [compound 831], for which, in test [1], the “Insecticidal effect on diamondback moth (Test Example 1), judged grade” value (from here on “Insecticidal effect on diamondback moth”) was “D (79-50)”. The “Insecticidal effect on common cutworm (Test Example 2), judged grade” value (from here on “Insecticidal effect on common cutworm”) in test [2] is recorded as “D (79-50)”.
As for `CC(C)NC(=O)c1c(I)cccc1C(=O)Nc1ccc(C(F)(C(F)(F)F)C(F)(F)F)cc1Br` [compound 1699], the “Insecticidal effect (Test Example 1), judged from mortality” value in test [1] is “A (100)”. Further, in test [2] (setting [4]), the “Insecticidal effect (Test Example 2), judged from mortality” value is recorded as “A (100)”.
In the case of `CC(C)NC(=O)c1c(C(=O)Nc2ccc(Cl)cc2Cl)cccc1[N+](=O)[O-]` [compound 633], the “Insecticidal effect on diamondback moth” value in test [1] is given as “A (100)”. Also, in test [2], the “Insecticidal effect on common cutworm” value is on record as “D (79-50)”.
For `CC(C)NC(=O)c1c(C(=O)Nc2ccc(Cl)c(Cl)c2Cl)cccc1[N+](=O)[O-]` [compound 644], in that order: “A (100)” and “A (100)”.
For `CC(C)(C)NC(=O)c1c(I)cccc1C(=O)Nc1ccc(C(F)(C(F)(F)F)C(F)(F)F)cc1F` [compound 1670], the “Insecticidal effect (Test Example 1), judged from mortality” value in test [1] is “A (100)”. Also, in test [2] (setting [4]), the “Insecticidal effect (Test Example 2), judged from mortality” value is given as “A (100)”.
As to `CC(C)(C)NC(=O)c1c(I)cccc1C(=O)Nc1ccc(OC(F)(F)F)cc1F` [compound 1189], in test [1] (setting [5]), the “Insecticidal effect, Test Example 1” value is reported as “A (100)”. The “Insecticidal effect, Test Example 2” value in test [2] (setting [6]) is on record as “A (100)”.
In the case of `Cc1cc(C(F)(F)C(F)(F)F)ccc1NC(=O)c1cccc(I)c1C(=O)N[C@@H](C)CBr` [compound 1606], in test [1], the “Insecticidal effect (Test Example 1), judged from mortality” value was “A (100)”. Moreover, the “Insecticidal effect (Test Example 2), judged from mortality” value in test [2] (setting [4]) is “A (100)”.
As for `CC(C)NC(=O)c1c(I)cccc1C(=O)Nc1ccc(C(F)(C(F)(F)F)C(F)(F)F)cc1C(C)C` [compound 1691], the “Insecticidal effect (Test Example 1), judged from mortality” value in test [1] is on record as “A (100)”. The “Insecticidal effect (Test Example 2), judged from mortality” value in test [2] (setting [4]) is “A (100)”.
For the compound `CC(C)NC(=O)c1c(I)cccc1C(=O)Nc1ccc(C(F)(C(F)(F)F)C(F)(F)F)c(Cl)c1` [compound 1697], the “Insecticidal effect (Test Example 1), judged from mortality” value in test [1] is reported as “A (100)”. The “Insecticidal effect (Test Example 2), judged from mortality” value in test [2] (setting [4]) is listed as “A (100)”.
Take `CC(C)NC(=O)c1ccccc1C(=O)Nc1ccc([N+](=O)[O-])cc1` [compound 22]: in test [1] (setting [3]), the “Insecticidal effect, Test Example 1” value is reported as “A (100)”. For the same compound, in test [2] (setting [4]), the “Insecticidal effect, Test Example 2” value was “D (79-50)”.
Consider `CC(C)NC(=O)c1c(C(=O)Nc2ccc(OC(F)F)c(C(F)(F)F)c2)cccc1[N+](=O)[O-]` [compound 693], for which, in test [1], the “Insecticidal effect on diamondback moth” value is recorded as “A (100)”. The “Insecticidal effect on common cutworm” value in test [2] is “A (100)”.
On to `Cc1cc(OC(F)(F)F)ccc1NC(=O)c1cccc(OC(F)(F)F)c1C(=O)NC(C)(C)C` [compound 1234], for which the “Insecticidal effect, Test Example 1” value in test [1] (setting [5]) is given as “A (100)”. In addition, the “Insecticidal effect, Test Example 2” value in test [2] (setting [6]) is given as “A (100)”.
In the case of `Cc1cc2c(cc1NC(=O)c1cccc(I)c1C(=O)NC(C)C)OC(F)(F)C2(F)F` [compound 1666], the “Insecticidal effect (Test Example 1), judged from mortality” value in test [1] is recorded as “A (100)”. Moreover, the “Insecticidal effect (Test Example 2), judged from mortality” value in test [2] (setting [4]) is “A (100)”.
Turning to `Cc1ccccc1NC(=O)c1cc(Cl)ccc1C(=O)NC(C)C` [compound 183], the “Insecticidal effect, Test Example 1” value in test [1] (setting [3]) is “A (100)”. In addition, the “Insecticidal effect, Test Example 2” value in test [2] (setting [4]) is “B (99-90)”.
On to `CC(C)NC(=O)c1c(I)cccc1C(=O)Nc1cc2c(cc1F)OC(F)(F)O2` [compound 1595], for which the “Insecticidal effect (Test Example 1), judged from mortality” value in test [1] is “A (100)”. Also, the “Insecticidal effect (Test Example 2), judged from mortality” value in test [2] (setting [4]) is recorded as “A (100)”.
Consider `CC(C)NC(=O)c1c(I)cccc1C(=O)Nc1cc2c(cc1Cl)OC(F)(F)C(F)O2` (racemic) [compound 1601], for which the “Insecticidal effect (Test Example 1), judged from mortality” value in test [1] was “A (100)”. In addition, the “Insecticidal effect (Test Example 2), judged from mortality” value in test [2] (setting [4]) is listed as “A (100)”.
With `CSc1cc(C(F)(F)C(F)(F)F)ccc1NC(=O)c1cccc(I)c1C(=O)NC(C)C` [compound 1700], in test [1], the “Insecticidal effect (Test Example 1), judged from mortality” value is recorded as “A (100)”. Besides, the “Insecticidal effect (Test Example 2), judged from mortality” value in test [2] (setting [4]) is recorded as “D (79-50)”.
Taken in the same sequence, the figures for `Cc1c(NC(=O)c2cccc(I)c2C(=O)NC(C)(C)C)ccc(C(F)(C(F)(F)F)C(F)(F)F)c1C` [compound 1690] were “A (100)” and “A (100)”.
As to `Cc1c(NC(=O)c2cccc(I)c2C(=O)NC(C)C)ccc(C(F)(C(F)(F)F)C(F)(F)F)c1C` [compound 1689], the “Insecticidal effect (Test Example 1), judged from mortality” value in test [1] was “A (100)”. In test [2] (setting [4]), the “Insecticidal effect (Test Example 2), judged from mortality” value is “A (100)”.
Turning to `CC(C)NC(=O)c1cccc(F)c1C(=O)Nc1ccc(C(F)(F)C(F)(F)C(F)(F)F)cc1` [compound 535], in test [1], the “Insecticidal effect on diamondback moth” value was “A (100)”. In addition, the “Insecticidal effect on common cutworm” value in test [2] is “A (100)”.
On to `CC(C)NC(=O)c1cc(Cl)ccc1C(=O)Nc1ccc(F)cc1` [compound 169], for which the “Insecticidal effect, Test Example 1” value in test [1] (setting [3]) is “A (100)”. Moreover, the “Insecticidal effect, Test Example 2” value in test [2] (setting [4]) was “D (79-50)”.
For `CC(C)NC(=O)c1c(C(=O)Nc2ccc(OC(F)F)cc2C(F)(F)F)cccc1[N+](=O)[O-]` [compound 692], the “Insecticidal effect on diamondback moth” value in test [1] is recorded as “A (100)”. Further, the “Insecticidal effect on common cutworm” value in test [2] is reported as “D (79-50)”.
In the case of `CC(C)(C)NC(=O)c1c(I)cccc1C(=O)Nc1ccc(C(F)(C(F)(F)F)C(F)(F)F)c(F)c1` [compound 1696], in test [1], the “Insecticidal effect (Test Example 1), judged from mortality” value is given as “A (100)”. Moreover, in test [2] (setting [4]), the “Insecticidal effect (Test Example 2), judged from mortality” value is listed as “A (100)”.
Consider `CCN(CC)C(=O)c1c(I)cccc1C(=O)N(CC)c1ccc(C(F)(F)C(F)(F)F)cc1C` [compound 1179], for which the “Insecticidal effect, Test Example 1” value in test [1] (setting [5]) is given as “A (100)”. For the same compound, the “Insecticidal effect, Test Example 2” value in test [2] (setting [6]) is recorded as “A (100)”.
With `CC(C)NC(=O)c1c(I)cccc1C(=O)Nc1ccc(C(F)(F)C(F)(F)F)c(Cl)c1` [compound 1608], the “Insecticidal effect (Test Example 1), judged from mortality” value in test [1] is recorded as “A (100)”. The “Insecticidal effect (Test Example 2), judged from mortality” value in test [2] (setting [4]) is on record as “A (100)”.
Consider `CC(C)(C)NC(=O)c1ccccc1C(=O)Nc1ccc(C(O)(C(F)(F)F)C(F)(F)F)cc1` [compound 1052], for which the “Insecticidal effect, Test Example 1” value in test [1] (setting [5]) is listed as “A (100)”. Moreover, the “Insecticidal effect, Test Example 2” value in test [2] (setting [6]) is listed as “A (100)”.
In the case of `CSc1ccc(NC(=O)c2cccc([N+](=O)[O-])c2C(=O)NC(C)C)c(C)c1` [compound 719], the “Insecticidal effect on diamondback moth” value in test [1] is given as “A (100)”. For the same compound, the “Insecticidal effect on common cutworm” value in test [2] was “D (79-50)”.
